Reference: paper PMC10426190 (Breast Cancer Research : BCR, 2023)

System: E2-induced (ER target) genes in MCF7
Test: Gene expression analysis by RNA-sequencing in MCF7 with E2 stimulation
Type: cell-based, human
Settings: MCF7; 1 nM E2 ± 1 μM compound, 24 h
Experimental: MCF7 were cultured in hormone deprivation media (with 10% charcoal-stripped FBS) for at least 3 days before assay. Trypsinized cells were seeded in a 12-well plate, stimulated with 1 nM β-estradiol (E2), and treated with/without 1 μM compounds for 24 h. Total RNA was extracted using the TRIzol reagent according to the manufacturer’s protocol. RNA purity and quantification were evaluated using the NanoDrop 2000 spectrophotometer (Thermo Scientific, USA). RNA integrity was assessed using the Agilent 2100 Bioanalyzer (Agilent Technologies, Santa Clara, CA, USA). Then the libraries were constructed using TruSeq Stranded mRNA LT Sample Prep Kit (Illumina, San Diego, CA, USA) according to the manufacturer’s instructions. The transcriptome sequencing and analysis were conducted by OE Biotech Co., Ltd. (Shanghai, China). The libraries were sequenced on an Illumina HiSeq X Ten platform and 150 bp paired-end reads were generated. […] Raw data (raw reads) of FASTq format were firstly processed using Trimmomatic and the low-quality reads were removed to obtain the clean reads. […] The clean reads were mapped to the human genome (GRCh38) using HISAT2 [27]. FPKM [28] of each gene was calculated using Cufflinks, and the read counts of each gene were obtained by HTSeqcount. Differential expression analysis was performed using the DESeq (2012) R package.
MCF7 with hormone-deprived pre-treatment were administrated ER ligands or not present with 1 nM E2 stimulation for 24 h incubation in a 12-well plate. Total mRNA was isolated from treated cells and sequenced on an Illumina HiSeq X Ten platform. FPKM of each gene was calculated using Cufflinks and Differential expression genes analysis by using the DESeq (2012) R package. […] T47D EFM-19 and HCC1500 cells were grown in RPMI media supplemented with 10% charcoal-stripped FBS for 14 days and then treated with ER antagonist (1 μM) or DMSO in the presence E2 (1nM) stimulation for 24 h before RNA isolation and gene expression analysis as described in methods. […] The uteruses were harvested 24 h after the final doses and stained by toluidine blue. Endometrial height was assessed from the basement membrane to the luminal border (scale bar in green lines: 200 μm), Arrows indicate the uterine epithelium (e).

SMILES: C[C@]12CC[C@@H]3c4ccc(O)cc4CC[C@H]3[C@@H]1CC[C@@H]2O [E2, β-estradiol]
- ACTG2 expression: 3.78 FPKM
- ADCY1 expression: 29.74 FPKM
- AGR3 expression: 24.59 FPKM
- AMZ1 expression: 3.24 FPKM
- ANLN expression: 47.32 FPKM
- ARHGAP36 expression: 3.84 FPKM
- ASCL1 expression: 5.48 FPKM
- ASF1B expression: 78.22 FPKM
- ASMTL-2 expression: 6.46 FPKM
- ATAD2 expression: 69.95 FPKM
- ATRNL1 expression: 0.42 FPKM
- AURKB expression: 43.03 FPKM
- BIRC5 expression: 50.28 FPKM
- BLM expression: 8.02 FPKM
- BMPER expression: 1.39 FPKM
- BRCA1 expression: 9.45 FPKM
- BRCA2 expression: 5.65 FPKM
- BRIP1 expression: 54.99 FPKM
- BUB1B expression: 18.35 FPKM
- C1orf226 expression: 13.05 FPKM
- C5AR2 expression: 3.18 FPKM
- CA2 expression: 184.51 FPKM
- CA12 expression: 52.56 FPKM
- CALCR expression: 6.65 FPKM
- CAV1 expression: 11.53 FPKM
- CCN5 expression: 50.43 FPKM
- CCNA2 expression: 35.91 FPKM
- CCNE2 expression: 17.15 FPKM
- CD99-2 expression: 8.67 FPKM
- CDC6 expression: 16.34 FPKM
- CDC25A expression: 7.21 FPKM
- CDC45 expression: 22.61 FPKM
- CDCA3 expression: 12.59 FPKM
- CDCA4 expression: 35.30 FPKM
- CDCA5 expression: 32.97 FPKM
- CDCA7 expression: 8.46 FPKM
- CDH26 expression: 1.84 FPKM
- CDK1 expression: 34.56 FPKM
- CDT1 expression: 51.94 FPKM
- CENPI expression: 6.53 FPKM
- CENPU expression: 12.95 FPKM
- CHAF1B expression: 5.21 FPKM
- CHEK1 expression: 5.59 FPKM
- CKS1B expression: 97.65 FPKM
- CLSPN expression: 5.95 FPKM
- COL12A1 expression: 4.88 FPKM
- CXCL12 expression: 18.59 FPKM
- DDIAS expression: 9.79 FPKM
- DHRSX-2 expression: 1.19 FPKM
- DKK1 expression: 65.08 FPKM
- DNA2 expression: 7.03 FPKM
- DPYSL5 expression: 1.59 FPKM
- DSCC1 expression: 15.71 FPKM
- DTL expression: 6.96 FPKM
- E2F1 expression: 27.20 FPKM
- E2F2 expression: 5.64 FPKM
- E2F7 expression: 9.64 FPKM
- E2F8 expression: 10.32 FPKM
- ELOVL2 expression: 16.88 FPKM
- EME1 expression: 10.05 FPKM
- ERCC6L expression: 4.70 FPKM
- ESCO2 expression: 7.26 FPKM
- ESPL1 expression: 17.48 FPKM
- EXO1 expression: 10.16 FPKM
- FAM20A expression: 2.20 FPKM
- FAM111B expression: 12.41 FPKM
- FANCA expression: 22.66 FPKM
- FANCD2 expression: 15.48 FPKM
- FANCI expression: 48.65 FPKM
- FEN1 expression: 69.25 FPKM
- FIGNL1 expression: 5.08 FPKM
- FKBP4 expression: 141.57 FPKM
- GATA4 expression: 0.17 FPKM
- GFRA1 expression: 93.16 FPKM
- GINS1 expression: 23.84 FPKM
- GINS2 expression: 36.18 FPKM
- GJA1 expression: 1.09 FPKM
- GLA expression: 91.41 FPKM
- GP1BB expression: 2.96 FPKM
- GPR68 expression: 2.46 FPKM
- GPRIN1 expression: 8.93 FPKM
- GREB1 expression: 60.67 FPKM
- H2AX expression: 195.62 FPKM
- HBB expression: 2.07 FPKM
- HELLS expression: 7.42 FPKM
- HEY2 expression: 5.27 FPKM
- HMGB2 expression: 247.66 FPKM
- IGFBP4 expression: 131.73 FPKM
- IGSF1 expression: 11.09 FPKM
- ITGA2B expression: 1.22 FPKM
- KIF11 expression: 25.57 FPKM
- KIF18B expression: 9.55 FPKM
- KIFC1 expression: 32.81 FPKM
- KLK11 expression: 14.79 FPKM
- KNL1 expression: 7.74 FPKM
- KNTC1 expression: 15.58 FPKM
- LHX2 expression: 3.63 FPKM
- LIG1 expression: 50.95 FPKM
- LMNB1 expression: 103.66 FPKM
- MAD2L1 expression: 15.82 FPKM
- MCM2 expression: 79.68 FPKM
- MCM3 expression: 73.54 FPKM
- MCM4 expression: 90.54 FPKM
- MCM5 expression: 31.11 FPKM
- MCM6 expression: 49.04 FPKM
- MCM7 expression: 195.09 FPKM
- MCM10 expression: 11.30 FPKM
- MELK expression: 23.52 FPKM
- MKI67 expression: 43.57 FPKM
- MYB expression: 14.56 FPKM
- MYBL1 expression: 7.63 FPKM
- MYBL2 expression: 105.97 FPKM
- NCAPG2 expression: 42.44 FPKM
- NCAPG expression: 16.64 FPKM
- NPY1R expression: 21.66 FPKM
- ORC1 expression: 9.75 FPKM
- ORC6 expression: 17.34 FPKM
- PAQR4 expression: 27.39 FPKM
- PBK expression: 34.81 FPKM
- PCLAF expression: 64.57 FPKM
- PCNA expression: 139.06 FPKM
- PDZK1 expression: 5.01 FPKM
- PGR expression: 8.19 FPKM
- PKIB expression: 60.35 FPKM
- PKMYT1 expression: 41.08 FPKM
- POLA1 expression: 6.08 FPKM
- POLA2 expression: 14.49 FPKM
- POLD1 expression: 24.97 FPKM
- POLE2 expression: 6.15 FPKM
- POLE expression: 25.41 FPKM
- POLQ expression: 6.41 FPKM
- PRIM1 expression: 28.80 FPKM
- PRSS23 expression: 215.68 FPKM
- RAB31 expression: 21.61 FPKM
- RAD51AP1 expression: 13.82 FPKM
- RAD51 expression: 9.69 FPKM
- RAD54L expression: 12.35 FPKM
- RAMP3 expression: 13.53 FPKM
- RAPGEFL1 expression: 7.70 FPKM
- RBL1 expression: 5.83 FPKM
- RECQL4 expression: 32.15 FPKM
- RERG expression: 8.59 FPKM
- RET expression: 10.12 FPKM
- RFC2 expression: 36.71 FPKM
- RFC3 expression: 9.92 FPKM
- RFC4 expression: 27.17 FPKM
- RNASEH2A expression: 63.93 FPKM
- RRM1 expression: 40.40 FPKM
- RRM2 expression: 98.16 FPKM
- RUBCNL expression: 1.40 FPKM
- SDK2 expression: 1.00 FPKM
- SFXN2 expression: 31.80 FPKM
- SHCBP1 expression: 7.21 FPKM
- SKA3 expression: 14.05 FPKM
- SLC6A14 expression: 33.54 FPKM
- SMC2 expression: 14.75 FPKM
- SPC24 expression: 17.07 FPKM
- SPC25 expression: 16.49 FPKM
- STC2 expression: 134.11 FPKM
- TACC3 expression: 40.66 FPKM
- TCF19 expression: 21.19 FPKM
- TCOF1 expression: 21.81 FPKM
- TGM2 expression: 1.78 FPKM
- TICRR expression: 10.96 FPKM
- TK1 expression: 126.85 FPKM
- TMEM26 expression: 4.29 FPKM
- TMEM164 expression: 18.93 FPKM
- TONSL expression: 21.56 FPKM
- TOP2A expression: 69.34 FPKM
- TP73 expression: 3.93 FPKM
- TRIP13 expression: 21.48 FPKM
- TUBA1B expression: 1112.26 FPKM
- TUBB expression: 568.06 FPKM
- TYMS expression: 74.96 FPKM
- UBE2C expression: 67.26 FPKM
- UBE2T expression: 108.61 FPKM
- UHRF1 expression: 26.62 FPKM
- UNG expression: 64.43 FPKM
- WDHD1 expression: 10.21 FPKM
- WDR62 expression: 15.52 FPKM
- WDR76 expression: 5.46 FPKM
- XRCC2 expression: 7.64 FPKM
- XRCC3 expression: 19.64 FPKM
- ZGRF1 expression: 3.51 FPKM
- ZNF367 expression: 15.85 FPKM
